Source: patent US4064277A, “Method for processing soybeans” (Kikkoman Shoyu Co., Ltd., priority 1974, dated 1977)

How the values were obtained:
β-glycosidase [1] = assay: minimum effective amount of competitive inhibitor, operation of Example 1 repeated; conditions: based on the weight of the whole soybeans
Description: 40 Grams of whole soybeans were swelled by soaking at room temperature for 8 hours in 80 ml. of an aqueous solution containing glucono-1,5-lactone as a competitive inhibitor for β-glycosidase in such proportion, based on the weight of the soybeans, as shown in Table 1. In this case, two thirds times the amount of said aqueous solution was incorporated into the soybeans. To the soaked soybeans was added 320 ml. of hot water (at above 95° C.), and the resulting mixture was treated by means of a homogenizer to prepare a ground suspension, which was then filtered by use of a 100-mesh sieve to obtain an extract. The temperature at the time of the homogenization treatment effected with addition of said hot water was above 90° C., and, by said treatment, β-glycosidase contained in the soybeans was completely inactivated, and the mixture was freed from beany odor (grassy smell). The thus obtained extract (soybean milk) was subjected to organoleptic test by drinking to obtain such results as shown in Table 1. The aforesaid operation was repeated, except that the glucono-1,5-lactone was replaced by each of the competitive inhibitors shown in Table 2, and the minimum effective amount of the competitive inhibitor based on the weight of the whole soybeans was calculated. The same operation as in Example 1 was effected, except that the glucono-1,5-lactone was replaced by each of the competitive inhibitors set forth in Table 3, and the minimum effective amount of the competitive inhibitor based on the weight of the whole soybeans was calculated.

β-glycosidase [2] = assay: β-glycosidase inhibitory ratio in soaked whole soybeans (p-nitrophenyl-β-D-glucopyranoside substrate, 420 mμ); type: biochemical; conditions: for β-Glycosidase inhibitory ratio (%): soaking 8 hours at room temperature
Description: 40 Grams of whole soybeans were swelled by soaking at room temperature for 8 hours in 80 ml. of an aqueous solution containing glucono-1,5-lactone as a competitive inhibitor for β-glycosidase in such proportion, based on the weight of the soybeans, as shown in Table 1. In this case, two thirds times the amount of said aqueous solution was incorporated into the soybeans. To the soaked soybeans was added 320 ml. of hot water (at above 95° C.), and the resulting mixture was treated by means of a homogenizer to prepare a ground suspension, which was then filtered by use of a 100-mesh sieve to obtain an extract. The temperature at the time of the homogenization treatment effected with addition of said hot water was above 90° C., and, by said treatment, β-glycosidase contained in the soybeans was completely inactivated, and the mixture was freed from beany odor (grassy smell).
^2) The β-glycosidase inhibitory ratio (%) was measured in the
following manner: At the time of soybean soaking, in the above-mentioned
operation, 0.1 weight % based on the weight of the soybeans of
p-nitrophenyl-β-D-glucopyranoside was absorbed together with the
soaking solution into the soybeans. After lapse of the same soaking perio
as mentioned previously, the soybeans were boiled in water for 5 minutes.
Subsequently, the soybeans were soaked in a 2.5M sodium carbonate solutio
to elute p-nitrophenol which had been liberated in the soybeans due to th
action of β-glycosidase. The developed yellow color was determined b
using electrophotometer (420 mμ), and the ratio (%) of
β-glycosidase activity remaining in each sample was subtracted from
100%, assuming as 100% the β-glycosidase activity in the sample of
Run No. 1, which had not been incorporated with glucono-1,5-lactone, to
obtain a value. This value was decided as the inhibitory ratio (%).

Question: `C[C@@H]1OC(=O)[C@@H](O)[C@H](O)[C@@H]1O` [Fucono-1,5-lactone, fucono-1,5-lactone] was tested. Which “Minimum effective amount (weight %)” value (β-glycosidase [1]) did it give?
Answer: 0.02 weight %

Question: `OC[C@H]1NC(O)[C@H](O)[C@@H](O)[C@@H]1O` (stereo partly drawn) [Nojirimycin] was tested. Which “Minimum effective amount (weight %)” value (β-glycosidase [1]) did it give?
Answer: 0.01 weight %

Question: How did the “Minimum effective amount (weight %)” value (β-glycosidase [1]) turn out when `O=C1O[C@H](CO)[C@H](O)[C@H](O)[C@H]1O` [Galactono-1,5-lactone, galactono-1,5-lactone] was run?
Answer: 20 weight %

Question: Which “Minimum effective amount (weight %)” value (β-glycosidase [1]) does the source give for `OC[C@H]1OC(O)[C@H](O)[C@@H](O)[C@@H]1O` (stereo partly drawn) [Glucose, glucose] here?
Answer: 40 weight %

Question: For `O=C1O[C@H](CO)[C@@H](O)[C@H](O)[C@H]1O` [Glucono-1,5-lactone, glucono-1,5-lactone], which “β-Glycosidase inhibitory ratio (%)” value (β-glycosidase [2]; Run No. 2: amount used 0.0015 weight %, incorporated into soybeans 0.0010 weight %) is on record?
Answer: 13%

Question: What about the “β-Glycosidase inhibitory ratio (%)” value (β-glycosidase [2]; Run No. 3: amount used 0.015 weight %, incorporated into soybeans 0.010 weight %) of the same compound?
Answer: 49%

Question: What about the “β-Glycosidase inhibitory ratio (%)” value (β-glycosidase [2]; Run No. 4: amount used 0.15 weight %, incorporated into soybeans 0.10 weight %) of the same compound?
Answer: 73%

Question: What about the “β-Glycosidase inhibitory ratio (%)” value (β-glycosidase [2]; Run No. 5: amount used 1.5 weight %, incorporated into soybeans 1.0 weight %) of the same compound?
Answer: 90%

Question: And the “activity of β-glycosidase in the soybeans” value (β-glycosidase [2]; whole soybeans impregnated with 0.10 weight % or more, as aqueous solution)?
Answer: greatly inhibited
